EC50 data for seven compounds are collected here from patent publication US7173151B2, “Cycloalkyl-substituted alkanoic acid derivatives, processes for their preparation and their use as pharmaceuticals” (Sanofi-AventisDeutschand GmbH, priority 2003, dated 2007).

By EC50 is commonly meant the concentration needed to bring the measured effect to its halfway point. The low end stands for higher potency in that assay, the high end for lower potency in that assay.

This test addresses T1, GR-GAL4-humanPPARalpha-LBD (Homo sapiens, UniProt Q07869).
T1 construct: amino acids S167–Y468; expressed in transfected cells; host or cells: HEK cells, stably transfected (pcDNA3, CMV promoter)
T1 sequence (Q07869 167-468): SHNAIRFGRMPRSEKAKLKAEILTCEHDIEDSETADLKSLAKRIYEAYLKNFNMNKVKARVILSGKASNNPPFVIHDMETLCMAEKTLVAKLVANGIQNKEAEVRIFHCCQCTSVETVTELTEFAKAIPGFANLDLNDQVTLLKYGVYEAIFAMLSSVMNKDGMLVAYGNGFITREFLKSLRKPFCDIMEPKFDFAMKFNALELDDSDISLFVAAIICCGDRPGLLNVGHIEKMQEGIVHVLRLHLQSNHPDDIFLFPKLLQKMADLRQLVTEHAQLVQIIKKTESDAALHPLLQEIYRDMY
In words: Cellular PPARalpha assay (luciferase reporter, stably transfected HEK cell line). The format is cell-based. On the procedure:
Determination of EC50 Values of PPAR Agonists in the Cellular PPARalpha Assay
The potency of substances which bind to human PPARalpha and activate in an agonistic manner is analyzed using a stably transfected HEK cell line (HEK=human embryo kidney) which is referred to here as PPARalpha reporter cell line. It contains two genetic elements, a luciferase reporter element (pdeltaM-GAL4-Luc-Zeo) and a PPARalpha fusion protein (GR-GAL4-humanPPARalpha-LBD) which mediates expression of the luciferase reporter element depending on a PPARalpha ligand. The stably and constitutively expressed fusion protein GR-GAL4-humanPPARalpha-LBD binds in the cell nucleus of the PPARalpha reporter cell line via the GAL4 protein portion to the GAL4 DNA binding motifs 5′-upstream of the luciferase reporter element which is integrated in the genome of the cell line. There is only little expression of the luciferase reporter gene without addition of a PPARalpha ligand if fatty acid-depleted fetal calf serum (cs-FCS) is used in the assay. PPARalpha ligands bind and activate the PPARalpha fusion protein and thereby bring about expression of the luciferase reporter gene. The luciferase which is formed can be detected by means of chemiluminescence via an appropriate substrate.
The PPARalpha reporter cell line was prepared in 2 stages. Firstly, the luciferase reporter element was constructed and stably transfected into HEK cells. For this purpose, five binding sites of the yeast transcription factor GAL4 (each 5′-CGGAGTACTGTCCTCCGAG-3′) (SEQ ID No. 1) were cloned in 5′-upstream of a 68 bp-long minimal MMTV promoter (Genbank Accession #V01175). The minimal MMTV promoter section contains a CCAAT box and a TATA element in order to enable efficient transcription by RNA polymerase II. The cloning and sequencing of the GAL4-MMTV construct took place in analogy to the description of Sambrook J. et. al. (Molecular cloning, Cold Spring Harbor Laboratory Press, 1989). Then the complete Photinus pyralis gene (Genbank Accession #M15077) was cloned in 3′-downstream of the GAL4-MMTV element. After sequencing, the luceriferase reporter element consisting of five GAL4 binding sites, MMTV promoter and luciferase gene was recloned into a plasmid which confers zeocin resistance in order to obtain the plasmid pdeltaM-GAL4-Luc-Zeo. This vector was transfected into HEK cells in accordance with the statements in Ausubel, F. M. et al. (Current protocols in molecular biology, Vol. 1–3, John Wiley & Sons, Inc., 1995).
In a second step, the PPARalpha fusion protein (GR-GAL4-humanPPARalpha-LBD) was introduced into the stable cell clone described. For this purpose, initially the cDNA coding for the N-terminal 76 amino acids of the glucocorticoid receptor (Genbank Accession #P04150) was linked to the cDNA section coding for amino acids 1–147 of the yeast transcription factor GAL4 (Genbank Accession #P04386). The cDNA of the ligand-binding domain of the human PPARalpha receptor (amino acids S167–Y468; Genbank Accession #S74349) was cloned in at the 3′-end of this GR-GAL4 construct. The fusion construct prepared in this way (GR-GAL4-humanPPARalpha-LBD) was recloned into the plasmid pcDNA3 (from Invitrogen) in order to enable constitutive expression therein by the cytomegalovirus promoter. This plasmid was linearized with a restriction endonuclease and stably transfected into the previously described cell clone containing the luciferase reporter element. The finished PPARalpha reporter cell line which contains a luciferase reporter element and constitutively expresses the PPARalpha fusion protein (GR-GAL4-human PPARalpha-LBD) was isolated by selection with zeocin (0.5 mg/ml) and G418 (0.5 mg/ml).
The activity of PPARalpha agonists is determined in a 3-day assay which is described below: […]

Regarding `CCC(CCC1CCCC(OCCN(Cc2ccc(C)cc2)C(=O)NC2CCCCC2)C1)C(=O)O` (racemic) [Example 1, 4-(cis-3-{2-[3-cyclohexyl-1-(4-methylbenzyl)ureido]ethoxy}cyclohexyl)-2-ethylbutyric acid], a half-maximal effect (EC50) was put at 1.1 nM.

For the compound `CCCCCCCN(CCOC1CCCC(CCC(C)(C)C(=O)O)C1)C(=O)NCCCC` (racemic) [Example 9, 4-{cis-3-[2-(3-butyl-1-heptylureido)ethoxy]cyclohexyl)-2,2-dimethylbutyric acid], the EC50 stood at 8.8 nM. For the compound `CCCCCCCN(CCO[C@@H]1CCC[C@H](CCC(C)(C)C(=O)O)C1)C(=O)NC1CCCCC1` (racemic) [Example 11, 4-{cis-3-[2-(3-cyclohexyl-1-heptylureido)ethoxy]cyclohexyl}-2,2-dimethylbutyrate], the 50% effective concentration (EC50) came to 28 nM.

Regarding `CCCCCCCN(CCO[C@@H]1CCC[C@H](CCC(CC)C(=O)O)C1)C(=O)NCCCC` (relative stereo) [Example 2, 4-{cis-3-[2-(3-butyl-1-heptylureido)ethoxy]cyclohexyl}-2-ethylbutyric acid], the EC50 is 1 nM. For `CCCCCCCN(CCO[C@@H]1CCC[C@H](CCC(CC)C(=O)O)C1)C(=O)NC1CCCCC1` (relative stereo) [Example 3, 4-{cis-3-[2-(3-cyclohexyl-1-heptylureido)ethoxy]cyclohexyl}-2-ethylbutyric acid], it took 0.56 nM to reach a half-maximal effect (EC50). In the case of `CCCCCCCN(CCO[C@@H]1CCC[C@H](CCC(C(=O)O)C(C)C)C1)C(=O)NCCCC` (relative stereo) [Example 5, 2-(2-{cis-3-[2-(3-butyl-1-heptylureido)ethoxy]cyclohexyl}ethyl)-3-methylbutyric acid], the midpoint of the response, the EC50, lay at 0.38 nM. The value for `CCCCNC(=O)N(CCO[C@@H]1CCC[C@H](CCC(C)(C)C(=O)O)C1)Cc1ccc(C)cc1` (relative stereo) [Example 10, 4-(cis-3-{2-[3-butyl-1-(4-methylbenzyl)ureido]ethoxy}cyclohexyl)-2,2-dimethylbutyric acid] was 74 nM.
